Assay results reported in US9102752B2, “Peptide vaccine for prevention and immunotherapy of dementia of the Alzheimer's type” (United Biomedical, Inc., priority 2013, dated 2015).

What was measured:
[1] = tested on: anti-Aβ antibodies in sera of vaccinated patients; assay: Epitope mapping, competitive binding inhibition EIA with patient sera (10-mer peptides, IC50); parameters: species or system human; Epitope mapping, fine specificity analysis, serum of subject P210: unit not given here; settings: for Epitope mapping, fine specificity analysis, serum of subject P101: serum 16 wpi of vaccinated patient P101; for Epitope mapping, fine specificity analysis, serum of subject P102: serum 16 wpi of vaccinated patient P102; for Epitope mapping, fine specificity analysis, serum of subject P103: serum 16 wpi of vaccinated patient P103; for Epitope mapping, fine specificity analysis, serum of subject P104: serum 16 wpi of vaccinated patient P104; for Epitope mapping, fine specificity analysis, serum of subject P105: serum 16 wpi of vaccinated patient P105; for Epitope mapping, fine specificity analysis, serum of subject P106: serum 16 wpi of vaccinated patient P106; for Epitope mapping, fine specificity analysis, serum of subject P107: serum 16 wpi of vaccinated patient P107; for Epitope mapping, fine specificity analysis, serum of subject P108: serum 16 wpi of vaccinated patient P108; for Epitope mapping, fine specificity analysis, serum of subject P109: serum 16 wpi of vaccinated patient P109; for Epitope mapping, fine specificity analysis, serum of subject P201: serum 16 wpi of vaccinated patient P201; for Epitope mapping, fine specificity analysis, serum of subject P202: serum 16 wpi of vaccinated patient P202; for Epitope mapping, fine specificity analysis, serum of subject P203: serum 16 wpi of vaccinated patient P203; for Epitope mapping, fine specificity analysis, serum of subject P204: serum 16 wpi of vaccinated patient P204; for Epitope mapping, fine specificity analysis, serum of subject P205: serum 16 wpi of vaccinated patient P205; for Epitope mapping, fine specificity analysis, serum of subject P206: serum 16 wpi of vaccinated patient P206; for Epitope mapping, fine specificity analysis, serum of subject P207: serum 16 wpi of vaccinated patient P207; for Epitope mapping, fine specificity analysis, serum of subject P208: serum 16 wpi of vaccinated patient P208; for Epitope mapping, fine specificity analysis, serum of subject P209: serum 16 wpi of vaccinated patient P209; for Epitope mapping, fine specificity analysis, serum of subject P210: serum 16 wpi of vaccinated patient P210
[2] = tested on: anti-Aβ antibodies in macaque antisera; assay: Specificity analysis (10-mer peptide ELISA) of antisera from Cynomolgus macaques; type: binding
[3] = antisera of macaques given UBI AD Vaccine 150 μg/dose, 9 WPI
[4] = antisera of macaques given UBI AD Vaccine 150 μg/dose, 15 WPI
[5] = antisera of macaques given UBI AD Vaccine 750 μg/dose, 9 WPI
[6] = antisera of macaques given UBI AD Vaccine 750 μg/dose, 15 WPI

Row | Substance | Epitope mapping, fine specificity analysis, serum of subject P101 [1] | Epitope mapping, fine specificity analysis, serum of subject P102 [1] | Epitope mapping, fine specificity analysis, serum of subject P103 [1] | Epitope mapping, fine specificity analysis, serum of subject P104 [1] | Epitope mapping, fine specificity analysis, serum of subject P105 [1] | Epitope mapping, fine specificity analysis, serum of subject P106 [1] | Epitope mapping, fine specificity analysis, serum of subject P107 [1] | Epitope mapping, fine specificity analysis, serum of subject P108 [1] | Epitope mapping, fine specificity analysis, serum of subject P109 [1] | Epitope mapping, fine specificity analysis, serum of subject P201 [1] | Epitope mapping, fine specificity analysis, serum of subject P202 [1] | Epitope mapping, fine specificity analysis, serum of subject P203 [1] | Epitope mapping, fine specificity analysis, serum of subject P204 [1] | Epitope mapping, fine specificity analysis, serum of subject P205 [1] | Epitope mapping, fine specificity analysis, serum of subject P206 [1] | Epitope mapping, fine specificity analysis, serum of subject P207 [1] | Epitope mapping, fine specificity analysis, serum of subject P208 [1] | Epitope mapping, fine specificity analysis, serum of subject P209 [1] | Epitope mapping, fine specificity analysis, serum of subject P210 [1] | Reactivity of antisera with peptide (specificity analysis ELISA) [2, 3] | further results
1 | 21 (HDSGYEVHHQ; PEPTIDE (1)..(10) Abeta 6-15 or APP 770(H677-Q686); listed as Homo sapiens) [compound 21] | 0 | 0 | 0 | 0 | 0 | 0 | 0 | 0 | 0 | 0 | 0 | 0 | 0 | 0 | 0 | 0 | 0 | 0 | 0 | 0.266 | Reactivity of antisera with peptide (specificity analysis ELISA) [2, 4]: 0.494; Reactivity of antisera with peptide (specificity analysis ELISA) [2, 5]: 0.419; Reactivity of antisera with peptide (specificity analysis ELISA) [2, 6]: 0.332
2 | 12 (SEVKMDAEFR; PEPTIDE (1)..(10) Abeta -5-5 or APP 770(S667-R676); listed as Homo sapiens) [compound 12] | 10 | 0 | 0 | 0 | 0 | 0 | 0 | 0 | 0 | 0 | 0 | 0 | 0 | 0 | 0 | 0 | 0 | 0 | 0 | 0.056 | Reactivity of antisera with peptide (specificity analysis ELISA) [2, 4]: 0.053; Reactivity of antisera with peptide (specificity analysis ELISA) [2, 5]: 0.054; Reactivity of antisera with peptide (specificity analysis ELISA) [2, 6]: 0.050
3 | 25 (YEVHHQKLVF; PEPTIDE (1)..(10) Abeta 10-19 or APP 770(Y681-F690); listed as Homo sapiens) [compound 25] | 0 | 0 | 0 | 0 | 0 | 0 | 0 | 0 | 0 | 0 | 0 | 0 | 0 | 0 | 0 | 10 | 0 | 0 | 0 | 0.092 | Reactivity of antisera with peptide (specificity analysis ELISA) [2, 4]: 0.069; Reactivity of antisera with peptide (specificity analysis ELISA) [2, 5]: 0.069; Reactivity of antisera with peptide (specificity analysis ELISA) [2, 6]: 0.058
4 | 9 (EEISEVKMDA; PEPTIDE (1)..(10) Abeta -8-2 or APP 770(E664-A673); listed as Homo sapiens) [compound 9] | 0 | 0 | 0 | 0 | 0 | 0 | 0 | 0 | 0 | 0 | 0 | 0 | 0 | 0 | 0 | 0 | 0 | 0 | 0 | 0.082 | Reactivity of antisera with peptide (specificity analysis ELISA) [2, 4]: 0.092; Reactivity of antisera with peptide (specificity analysis ELISA) [2, 5]: 0.081; Reactivity of antisera with peptide (specificity analysis ELISA) [2, 6]: 0.076
5 | 22 (DSGYEVHHQK; PEPTIDE (1)..(10) Abeta 7-16 or APP 770(D678-K687); listed as Homo sapiens) [compound 22] | 214 | 0 | 0 | 0 | 0 | 0 | 0 | 0 | 0 | 0 | 0 | 0 | 0 | 0 | 0 | 0 | 0 | 0 | 0 | 0.270 | Reactivity of antisera with peptide (specificity analysis ELISA) [2, 4]: 0.289; Reactivity of antisera with peptide (specificity analysis ELISA) [2, 5]: 0.405; Reactivity of antisera with peptide (specificity analysis ELISA) [2, 6]: 0.197
6 | 8 (TEEISEVKMD; PEPTIDE (1)..(10) Abeta -9-1 or APP 770(T663-D672); listed as Homo sapiens) [compound 8] | 0 | 0 | 0 | 0 | 0 | 0 | 0 | 0 | 0 | 0 | 0 | 0 | 0 | 0 | 0 | 0 | 0 | 0 | 0 | 0.075 | Reactivity of antisera with peptide (specificity analysis ELISA) [2, 4]: 0.084; Reactivity of antisera with peptide (specificity analysis ELISA) [2, 5]: 0.061; Reactivity of antisera with peptide (specificity analysis ELISA) [2, 6]: 0.078
7 | 19 (FRHDSGYEVH; PEPTIDE (1)..(10) Abeta 4-13 or APP 770(F675-H684); listed as Homo sapiens) [compound 19] | 0 | 0 | 0 | 0 | 0 | 0 | 0 | 0 | 0 | 0 | 0 | 0 | 0 | 0 | 0 | 0 | 0 | 0 | 0 | 0.085 | Reactivity of antisera with peptide (specificity analysis ELISA) [2, 4]: 0.076; Reactivity of antisera with peptide (specificity analysis ELISA) [2, 5]: 0.066; Reactivity of antisera with peptide (specificity analysis ELISA) [2, 6]: 0.096
